Source: patent US5250548A, “Angiotensin II receptor antagonists” (Abbott Laboratories, priority 1992, dated 1993)
Where a name gives a salt, the structure may show the parent alone.

Tested on: blood pressure
Assay: not given
Settings: after intravenous administration; due to its activity as an angiotensin receptor agonist; cited from earlier work

SMILES	effect on blood pressure
CNCC(=O)N[C@@H](CCCN=C(N)N)C(=O)N[C@H](C(=O)N[C@@H](Cc1ccc(O)cc1)C(=O)N[C@H](C(=O)N[C@@H](Cc1cnc[nH]1)C(=O)N1CCC[C@H]1C(=O)N[C@@H](C)C(=O)O)C(C)C)C(C)C [saralasin, [Sar^1,Ala^8] angiotensin II]	initial increase in blood pressure after intravenous administration

Tested on: not given
Assay: not given
Settings: cited from earlier work

SMILES	oral bioavailability
CNCC(=O)N[C@@H](CCCN=C(N)N)C(=O)N[C@H](C(=O)N[C@@H](Cc1ccc(O)cc1)C(=O)N[C@H](C(=O)N[C@@H](Cc1cnc[nH]1)C(=O)N1CCC[C@H]1C(=O)N[C@@H](C)C(=O)O)C(C)C)C(C)C [saralasin, [Sar^1,Ala^8] angiotensin II]	very poor oral bioavailability

Tested on: renal artery ligated rats
Assay: In vivo blood pressure lowering in renal artery ligated hypertensive rats
Set-up: species or system rat
Settings: dose of 30 mg/kg

SMILES	reduction in mean arterial blood pressure (MAP)
CCCN(Cc1ccc(-c2ccccc2-c2nnn[nH]2)cc1)c1ncccc1C(=O)O [Example 88, 2-{N-Propyl-N-[(2'-[1H-tetrazol-5-yl]biphenyl-4-yl)methyl]amino}pyridine-3-carboxylic acid]	caused a reduction in mean arterial blood pressure (MAP)

Tested on: hypertension and congestive heart failure
Assay: not given
Settings: cited from earlier work

SMILES	clinical efficacy
C[C@H](CS)C(=O)N1CCC[C@H]1C(=O)O [captopril]	clinical efficacy in treating hypertension and congestive heart failure
CCOC(=O)[C@H](CCc1ccccc1)N[C@@H](C)C(=O)N1CCC[C@H]1C(=O)O [enalapril]	clinical efficacy in treating hypertension and congestive heart failure
COc1ccc(C[C@H](NC(=O)CC(C)(C)N)C(=O)N[C@@H](Cc2cnc[nH]2)C(=O)N[C@@H](CC2CCCCC2)[C@@H](O)[C@@H](O)CC(C)C)cc1 [enalkiren]	clinical efficacy in treating hypertension and congestive heart failure

Tested on: angiotensin II receptor
Assay: not given
Settings: cited from earlier work

SMILES	antagonism of the actions of angiotensin II
CNCC(=O)N[C@@H](CCCN=C(N)N)C(=O)N[C@H](C(=O)N[C@@H](Cc1ccc(O)cc1)C(=O)N[C@H](C(=O)N[C@@H](Cc1cnc[nH]1)C(=O)N1CCC[C@H]1C(=O)N[C@@H](C)C(=O)O)C(C)C)C(C)C [saralasin, [Sar^1,Ala^8] angiotensin II]	potent antagonist of the actions of angiotensin II

Target: T1, angiotensin II receptor (Oryctolagus cuniculus, UniProt P34976)
T1 construct: Main abdominal aortas were removed and placed in Krebs-Henseleit buffer; from tissue; host or cells: main abdominal aorta rings (3 mm) of female New Zealand White rabbits
T1 sequence (P34976 1-359): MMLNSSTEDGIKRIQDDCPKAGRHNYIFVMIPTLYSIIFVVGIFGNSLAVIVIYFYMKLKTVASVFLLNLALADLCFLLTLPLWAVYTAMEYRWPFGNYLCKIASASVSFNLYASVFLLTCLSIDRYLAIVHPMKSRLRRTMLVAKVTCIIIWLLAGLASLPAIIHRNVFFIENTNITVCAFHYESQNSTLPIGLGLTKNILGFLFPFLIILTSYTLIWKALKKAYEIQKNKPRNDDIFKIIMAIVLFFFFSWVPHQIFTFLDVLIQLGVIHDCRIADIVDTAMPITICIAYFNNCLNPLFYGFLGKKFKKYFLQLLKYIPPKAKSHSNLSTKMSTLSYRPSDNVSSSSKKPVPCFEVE
Assay: Angiotensin II functional assay: antagonism of contraction of rabbit aorta (isolated tissue, Schild analysis)
Set-up: species or system rabbit (female New Zealand White)
Settings: antagonist incubated 30 minutes, negative logarithm of antagonist concentration that requires doubling of the angiotensin II concentration
Protocol: Antagonism of Contraction of Rabbit Aorta The protocol reported by A. T Chiu and […]. Wong, et al. Hypertension, 13, 489-497 (1989)) was followed with a few modifications. Female New Zealand White rabbits weighing 2-5 kg were sedated with carbon dioxide and then sacrificed. Main abdominal aortas were removed and placed in Krebs-Henseleit buffer at room temperature. The tissues were cleaned of extraneous connective tissue, cut into 3 mm rings, and suspended within a 10 mL tissue bath. All dilutions of peptide preparations were made with 0.3% aqueous BSA. The tissues were primed with 55 mM potassium chloride. Tissues were pre-loaded with 1 g of tension. Tension was recorded on a model 7 Grass polygraph using FT03 transducers. At the end of the equilibrium period, a control cumulative concentration-contractile response curve for angiotensin II (A II: 1×10^-10 -10^-8 M) was obtained. The tissue was washed several times until the baseline was reached. Forty five minutes later, test compound (antagonist) was added and the tissue was incubated for 30 minutes. The concentration-response curve for A II was then repeated in the presence of the test compound. One dose of antagonist was tested per tissue only. […] All responses to the control agonist were calculated as a percentage of the maximum response.

pA2	SMILES
9.60	CCCN(Cc1ccc(-c2ccccc2-c2nnn[nH]2)cc1)c1nc(C)ncc1C(=O)O [Example 99, 2-Methyl-4-{N-propyl-N-[(2'-[1H-tetrazol-5-yl]biphenyl-4-yl)methyl]amino}pyrimidine-5-carboxylic acid]
8.93	O=C(O)c1cccnc1N(Cc1ccc(-c2ccccc2-c2nn[nH]n2)cc1)CC1CC1 [Example 206, 2-{N-Cyclopropylmethyl-N-[ (2'-[1H-tetrazol-5-yl]biphenyl-4-yl)methyl]amino}pyridine-3-carboxylic acid]

Same assay, conditions: antagonist incubated 30 minutes, negative logarithm of antagonist concentration that requires doubling of the angiotensin II concentration, read-out: pA2 (converted)

SMILES	Kb [pM]
CCCCN(Cc1ccc(-c2ccccc2-c2nnn[nH]2)cc1)c1ncncc1C(=O)O [Example 53, 4-{N-butyl-N-[(2'-[1H-tetrazol-5-yl]biphenyl-4-yl)methyl]amino}pyrimidine-5-carboxylic acid hydrochloride]	126
CCCN(Cc1ccc(-c2ccccc2-c2nn[nH]n2)cc1)c1ncncc1C(=O)O [Example 71, 4-{N-Propyl-N-[(2'-[1H-tetrazol-5yl]biphenyl-4-yl)methyl]amino}pyrimidine-5-carboxylic acid hydrochloride]	209
CCCCN(Cc1ccc(-c2ccccc2-c2nnn[nH]2)cc1)c1ncncc1C(=O)OCOC(=O)C(C)(C)C [Example 82, Pivaloyloxymethyl 4-{N-butyl-N-[(2'-[1H-tetrazol-5-yl]biphenyl-4-yl)methyl]amino}pyrimidine-5-carboxylate]	331
CCCN(Cc1ccc(-c2ccccc2-c2nn[nH]n2)cc1)c1nc(C(F)(F)F)ncc1C(=O)O [Example 114, 2-Trifluoromethyl-4-{N-propyl-N-[(2'-[1H-tetrazol-5-yl]biphenyl-4-yl)methyl]amino}pyrimidine-5-carboxylic acid]	1620
CCCCN(Cc1ccc(-c2ccccc2-c2nnn[nH]2)cc1)c1ncncc1C(=O)OC(C)OC(=O)C1CCN(C)CC1 (stereo not shown) [Example 121, 1-(1-Methylpiperidin-4-ylcarbonyloxy)ethyl 4-{N-butyl-N-[(2'-[1H-tetrazol-5-yl]biphenyl-4-yl)methyl]amino}pyrimidine-5-carboxylate]	257
CCCN(Cc1ccc(-c2ccccc2-c2nn[nH]n2)cc1)c1ncccc1C(O)C(F)(F)C(=O)OCC (stereo not shown) [Example 135, 3-(2.2-Difluoro-2-ethoxycarbonyl-1-hydroxyethyl)-2-{N-propyl-N-[(2'-[1H-tetrazol-5-yl]biphenyl-4-yl)methyl]amino}pyridine]	3390
CCCN(Cc1ccc(-c2ccccc2-c2nnn[nH]2)cc1)c1ncccc1C(=O)C(F)(F)C(=O)OCC [Example 137, 3-[2,2-Difluoro-2-(ethoxycarbonyl)acetyl]-2-{N-propyl-N-[(2'-[1H-tetrazol-5-yl]biphenyl-4-yl]methyl]amino}pyridine]	4570
CCCN(Cc1ccc(-c2ccccc2-c2nn[nH]n2)cc1)c1ncccc1C(O)CC(=O)O (stereo not shown) [Example 140, 3-(2-Carboxy-1-hydroxyethyl)-2-{N-propyl-N-[(2'-[1H-tetrazol-5-yl]biphenyl-4-yl)methyl]amino}pyridine]	1450

Continued, values first:

Kb [pM]	SMILES
631	CCCN(Cc1ccc(-c2ccccc2-c2nn[nH]n2)cc1)c1ncccc1NS(=O)(=O)C(F)(F)F [Example 147, 3-Trifluoromethanesulfonamido-2-{N-propyl-N-[(2'-[1H-tetrazol-5-yl]biphenyl-4-yl)methyl]amino}pyridine]
135	CCCCN(Cc1ccc(-c2ccccc2-c2nn[nH]n2)cc1)c1nccnc1C(=O)O [Example 157, 3-{N-Butyl-N-[(2'-[1H-tetrazol-5-yl]biphenyl-4-yl)methyl]amino}pyrazine-2-carboxylic acid]
234	CCCN(Cc1ccc(-c2ccccc2-c2nn[nH]n2)cc1)c1nc(F)ccc1C(=O)O [Example 160, 2-{N-Propyl-N-[(2'-[1H-tetrazol-5-yl]biphenyl-4-yl)methyl]amino}-6-fluoropyridine-3-carboxylic acid]
309	CCCCN(Cc1ccc(-c2ccccc2-c2nnn[nH]2)cc1)c1nc(F)ccc1C(=O)O [Example 162, 2-{N-Butyl-N-[(2'-[1H-tetrazol-5-yl]biphenyl-4-yl)methyl]amino}-6-fluoropyridine-3-carboxylic acid]
309	CCCCN(Cc1ccc(-c2ccccc2-c2nnn[nH]2)cc1)c1nc(OC)ccc1C(=O)O [Example 163, 2-{N-Butyl-N-[(2' -[1H-tetrazol-5-yl]biphenyl-4-yl)methyl]amino}-6-methoxypyridine-3-carboxylic acid]
3310	CCCCN(Cc1ccc(-c2ccccc2-c2nn[nH]n2)cc1)c1ncc(C(=O)O)cn1 [Example 167, 2-{N-Butyl-N-[(2'-[1H-tetrazol-5-yl]biphenyl-4-yl)methyl]amino}pyrimidine-5-carboxylic acid]
851	CCCCN(Cc1ccc(-c2ccccc2-c2nn[nH]n2)cc1)c1nnc(Cl)cc1C(=O)O [Example 168, 6-{N-Butyl-N-[(2'-[1H-tetrazol-5-yl]biphenyl-4-yl)methyl]amino}-3-chloropyridazine-5-carboxylic acid]
89.1	CCCCN(Cc1ccc(-c2ccccc2-c2nn[nH]n2)cc1)c1nnccc1C(=O)O [Example 169, 3-{N-Butyl-N-[(2'-[1H-tetrazol-5-yl]biphenyl-4-yl)methyl]amino}pyridazine-4-carboxylic acid]
214	CCCN(Cc1ccc(-c2ccccc2-c2nn[nH]n2)cc1)c1nnccc1C(=O)O [Example 172, 3-{N-Propyl-N-[(2'-[1H-tetrazol-5-yl]biphenyl-4-yl)methyl]amino}pyridazine-4-carboxylic acid]
912	CCCN(Cc1ccc(-c2ccccc2-c2nn[nH]n2)cc1)c1ncc(F)cc1C(=O)O [Example 180, 5-Fluoro-2-{N-propyl-N-[(2'-[1H-tetrazol-5-yl]biphenyl-4-yl)methyl]amino}pyridine-3-carboxylic acid]
229	CCCN(Cc1ccc(-c2ccccc2-c2nn[nH]n2)cc1)c1nccc(C)c1C(=O)O [Example 194, 4-Methyl-2-{N-propyl-N-[(2'-[1H-tetrazol-5-yl]biphenyl-4-yl)methyl]amino}pyridine-3-carboxylic acid]
2240	CCCN(Cc1ccc(-c2ccccc2-c2nn[nH]n2)cc1)c1ncccc1C(=O)NS(=O)(=O)c1ccccc1 [Example 203, 2-{N-Propyl-N-[(2'-[1H-tetrazol-5-yl]biphenyl-4-yl)methyl]amino}pyridine-3-(N-benzenesulfonyl)carboxamide]
1290	O=C(O)c1cccnc1NCc1ccc(-c2ccccc2-c2nn[nH]n2)cc1 [Example 226]
339	CCCCN(Cc1ccc(-c2ccccc2-c2nn[nH]n2)cc1)c1ncccc1C(=O)O [Example 229, 2-{N-Butyl-N-[(2'-[1H-tetrazol-5-yl]biphenyl-4-yl)methyl]amino}pyridine-3-carboxylic acid]
